Values joined by “and” are separate entries in the source; they are usually repeats but may differ in a detail not shown here. Equal values may be shown once.
Columns and labels:
[1] = test system: onychomycosis of the toenail; experiment: Phase II clinical study: overall clinical efficacy; assay type: in vivo, human
Method: (§1) A Phase II clinical pharmacology study was conducted in subjects with onychomycosis of the toenail. The study investigated the pharmacokinetics, efficacy and safety of three different dosing regimens of fosravuconazole. […] The three treatment groups were as follows: • a.
The efficacy endpoints were: (1) overall clinical efficacy; (2) changes over time in efficacy; (3) confirmation of elements of dermatophytes by direct microscopy; and (4) results of identification of dermatophytes by the polymerase chain reaction (PCR) method.
Overall clinical efficacy (cure rate and response rate) at Weeks 48 and 24 after the study treatment initiation for the efficacy analysis population (per protocol set, PPS) are presented in Tables 1 and 2 below. Overall clinical efficacy (cure rate and response rate) at Weeks 48 and 24 after the study treatment initiation for the full analysis set (FAS) are presented in Tables 3 and 4 below.

[2] = test system: Trichophyton mentagrophytes; experiment: Overall clinical evaluation by identified species; assay type: in vivo; settings: Week 48
Method: as §1

[3] = Safety: adverse events and laboratory tests; assay type: in vivo, human
Method: as §1
The safety endpoints were: (1) adverse events (AEs); (2) adverse reactions; and (3) laboratory tests.

[4] = 100 mg once daily, Week 24, FAS
[5] = 100 mg once daily, Week 24, PPS
[6] = 100 mg once daily, Week 48, FAS
[7] = 100 mg once daily, Week 48, PPS
[8] = 200 mg pulse treatment, Week 24, FAS
[9] = 200 mg pulse treatment, Week 24, PPS
[10] = 200 mg pulse treatment, Week 48, FAS
[11] = 200 mg pulse treatment, Week 48, PPS
[12] = 400 mg pulse treatment, Week 24, FAS
[13] = 400 mg pulse treatment, Week 24, PPS
[14] = 400 mg pulse treatment, Week 48, FAS
[15] = 400 mg pulse treatment, Week 48, PPS

C[C@@H](c1nc(-c2ccc(C#N)cc2)cs1)[C@@](Cn1cncn1)(OCOP(=O)(O)O)c1ccc(F)cc1F [fosravuconazole, 4-[2-[(1R,2R)-2-(2,4-difluorophenyl)-1-methyl-2-[(phosphonooxy)methoxy]-3-(1H-1,2,4-triazol-1-yl)propyl]-4-thiazolyl]benzo-nitrile]
Cure rate and 95% CI [1, 4]: 0.0 (0.0, 13.2) % | Cured [1, 4]: 0 | Failed [1, 4]: 0 | Improved [1, 4]: 6 | Markedly improved [1, 4]: 20 | Response rate and 95% CI [1, 4]: 76.9 (56.4, 91.0) % | Slightly improved [1, 4]: 0 | Cure rate and 95% CI [1, 5]: 0.0 (0.0, 13.7) % | Cured [1, 5]: 0 | Failed [1, 5]: 0 | Improved [1, 5]: 6 | Markedly improved [1, 5]: 19 | Response rate and 95% CI [1, 5]: 76.0 (54.9, 90.6) % | Slightly improved [1, 5]: 0 | Cure rate and 95% CI [1, 6]: 38.5 (20.3, 59.4) % | Cured [1, 6]: 10 | Failed [1, 6]: 0 | Improved [1, 6]: 1 | Markedly improved [1, 6]: 15 | Response rate and 95% CI [1, 6]: 96.2 (80.4, 99.9) % | Slightly improved [1, 6]: 0 | Cure rate and 95% CI [1, 7]: 40.0% and 40.0 (21.2, 61.3) % | Cured [1, 7]: 10 | Failed [1, 7]: 0 | Improved [1, 7]: 1 | Markedly improved [1, 7]: 14 | Response rate and 95% CI [1, 7]: 96.0% and 96.0 (79.7, 99.8) % | Slightly improved [1, 7]: 0 | Cure rate and 95% CI [1, 8]: 3.6 (0.1, 18.3) % | Cured [1, 8]: 1 | Failed [1, 8]: 0 | Improved [1, 8]: 10 | Markedly improved [1, 8]: 16 | Response rate and 95% CI [1, 8]: 60.7 (40.6, 78.4) % | Slightly improved [1, 8]: 1 | Cure rate and 95% CI [1, 9]: 4.0 (0.2, 20.3) % | Cured [1, 9]: 1 | Failed [1, 9]: 0 | Improved [1, 9]: 9 | Markedly improved [1, 9]: 14 | Response rate and 95% CI [1, 9]: 60.0 (38.7, 78.8) % | Slightly improved [1, 9]: 1 | Cure rate and 95% CI [1, 10]: 32.0 (15.0, 53.5) % | Cured [1, 10]: 8 | Failed [1, 10]: 0 | Improved [1, 10]: 4 | Markedly improved [1, 10]: 13 | Response rate and 95% CI [1, 10]: 84.0 (64.0, 95.4) % | Slightly improved [1, 10]: 0 | Cure rate and 95% CI [1, 11]: 27.3% and 27.3 (10.8, 50.2) % | Cured [1, 11]: 6 | Failed [1, 11]: 0 | Improved [1, 11]: 4 | Markedly improved [1, 11]: 12 | Response rate and 95% CI [1, 11]: 81.8% and 81.8 (59.8, 94.8) % | Slightly improved [1, 11]: 0 | Cure rate and 95% CI [1, 12]: 0.0 (0.0, 11.2) % | Cured [1, 12]: 0 | Failed [1, 12]: 0 | Improved [1, 12]: 11 | Markedly improved [1, 12]: 17 | Response rate and 95% CI [1, 12]: 54.8 (36.1, 72.6) % | Slightly improved [1, 12]: 3 | Cure rate and 95% CI [1, 13]: 0.0 (0.0, 11.2) % | Cured [1, 13]: 0 | Failed [1, 13]: 0 | Improved [1, 13]: 11 | Markedly improved [1, 13]: 17 | Response rate and 95% CI [1, 13]: 54.8 (36.1, 72.6) % | Slightly improved [1, 13]: 3 | Cure rate and 95% CI [1, 14]: 40.7 (22.4, 61.2) % | Cured [1, 14]: 11 | Failed [1, 14]: 0 | Improved [1, 14]: 4 | Markedly improved [1, 14]: 12 | Response rate and 95% CI [1, 14]: 85.2 (66.3, 95.8) % | Slightly improved [1, 14]: 0 | Cure rate and 95% CI [1, 15]: 40.7% and 40.7 (22.4, 61.2) % | Cured [1, 15]: 11 | Failed [1, 15]: 0 | Improved [1, 15]: 4 | Markedly improved [1, 15]: 12 | Response rate and 95% CI [1, 15]: 85.2% and 85.2 (66.3, 95.8) % | Slightly improved [1, 15]: 0 | Cure rate and 95% CI ([2]; 100 mg): 0.0 % | Cured ([2]; 100 mg): 0 | Failed ([2]; 100 mg): 0 | Improved ([2]; 100 mg): 0 | Markedly improved ([2]; 100 mg): 4 | Slightly improved ([2]; 100 mg): 0 | Cure rate and 95% CI ([2]; 200 mg): 0.0 % | Cured ([2]; 200 mg): 0 | Failed ([2]; 200 mg): 0 | Improved ([2]; 200 mg): 2 | Markedly improved ([2]; 200 mg): 0 | Slightly improved ([2]; 200 mg): 0 | Cure rate and 95% CI ([2]; 400 mg): 0.0 % | Cured ([2]; 400 mg): 0 | Failed ([2]; 400 mg): 0 | Improved ([2]; 400 mg): 0 | Markedly improved ([2]; 400 mg): 2 | Slightly improved ([2]; 400 mg): 0 | AEs resulting in discontinuation of the study treatment ([3]; 100 mg (once daily dose) group): 1 subject | AST or ALT elevated to Grade 2 after the start of study treatment ([3]; 100 mg (once daily dose) group): 2 subjects | Moderate AEs ([3]; 100 mg (once daily dose) group): 3 subjects | incidence of AEs ([3]; 100 mg (once daily dose) group): 89.7% | new AE derived from fungal infection ([3]; 100 mg (once daily dose) group): no new AE derived from fungal infection | AST or ALT elevated to Grade 2 after the start of study treatment ([3]; 200 mg (pulse treatment) group): 1 subject | Moderate AEs ([3]; 200 mg (pulse treatment) group): 12 subjects | incidence of AEs ([3]; 200 mg (pulse treatment) group): 64.5% | AEs resulting in discontinuation of the study treatment ([3]; 400 mg (pulse treatment) group): 4 subjects | AST or ALT elevated to Grade 2 after the start of study treatment ([3]; 400 mg (pulse treatment) group): 1 subject | Moderate AEs ([3]; 400 mg (pulse treatment) group): 12 subjects | incidence of AEs ([3]; 400 mg (pulse treatment) group): 85.3% | tinea pedis ([3]; 400 mg (pulse treatment) group): 2 subjects | tolerability ([3]; all dosing groups): well-tolerated | death or other serious AEs ([3]; any of the treatment groups): No death or other serious AEs occurred | AST or ALT elevated to Grade 2 after the start of study treatment ([3]; in total, all groups): 4 subjects
